Assay results published in PMC8286836, “Identifying SARS-CoV-2 antiviral compounds by screening for small molecule inhibitors of Nsp5 main protease” (Biochemical Journal, 2021).
Where “and” joins values, the source holds several entries; their conditions need not be identical. Equal entries are not always repeated. Entries after “also recorded” stand apart in the source; their conditions may differ. Where two headings read alike, the source gives them in different places. Where a SMILES comes first, the peptide text is derived from it. [ ]: non-standard residue; d: D form. The star is where a group is joined. Nle = CCCC[C@H](N)C(=O)O; Cbz = O=C(OCc1ccccc1)*; CH2F = FC*

Legend:
nsp5 [1] = biological target: T1, nsp5 (Severe acute respiratory syndrome coronavirus 2, UniProt P0DTD1); experiment: biochemical; type: biochemical; settings: for inhibition of nsp5 in FRET-based assay: drug concentrations 0 to 500 µM; for inhibition of nsp5 in presence of reducing agent: DTT or GSH; for inhibition of nsp5 in absence of reducing agent: no reducing agent
nsp5 [2] = biological target: T1, nsp5; experiment: Gel based nsp9 cleavage assay; type: biochemical; settings: 1 µM nsp5, drug 10-500 µM
thrombin = thrombin (Homo sapiens, UniProt P00734); experiment: thrombin FRET protease assay (specificity); type: biochemical; settings: for inhibition of thrombin activity (words): same buffer as in the HTS
Text: Calpain Inhibitor I and Z-DEVD-FMK were described recently as nsp5 inhibitors in vitro [21, 25]. To test the specificity of the final five drugs we tested them against a different protease, thrombin. We used the same buffer as in the HTS, which contained a non-ionic detergent, which reduces the likelihood of unspecific inhibition via colloidal aggregation. […] Lastly, we tested whether these compounds could inhibit the other viral coronavirus protease (nsp3 PLpro), which is also a cysteine protease. The substrate and assay conditions used in this experiment as well as example inhibitor compounds of PLpro are described elsewhere (see [28]).
The peptides were analysed by LC–MS on an Agilent 1100 LC-MSD.

mice = settings: cited from earlier work
SARS-CoV-2 = experiment: viral infectivity assay in Vero E6 cells; type: cell-based; settings: for EC50: read-out: EC50 viral infection
rhesus macaques = tested on: rhesus macaques; design: method as in PMID 29553486; settings: trials investigating AIDS disease progression; cited from earlier work
[3] = FRET-based assay, 10 nM nsp5, 20 µM substrate, 2 mM DTT, mean ± SEM, read-out: IC50
[4] = Severe acute respiratory syndrome coronavirus 2, Vero C1008, Vero E6 cells, MOI 0.5 PFU/cell, mean ± SEM

| Compound | inhibition of nsp5 in FRET-based assay (nsp5 [1]) | Hill coefficient (nH) (nsp5 [1]; FRET-based assay, mean ± SEM) | inhibition of nsp5 in nsp9 gel-based cleavage assay (words) (nsp5 [2]) | IC50 (nsp5 [1]; [3]) | also measured |
| --- | --- | --- | --- | --- | --- |
| CCNC(=O)[C@H]1O[C@@H](n2cnc3c(N)ncnc32)[C@H](O)[C@@H]1O [5'-N-Ethulcarbomaxidoadenosine] | Did not inhibit | – | – | – | – |
| O=C1O/C(=C/Br)CCC1c1cccc2ccccc12 (stereo not shown) [Bromoenol lactone] | – | -2.6 ± 0.15 | inhibited nsp5 | – | IC50 (nsp5 [1]): 3400 nM; Inhibition of thrombin: nH (thrombin; HTS buffer, thrombin FRET substrate, mean ± SEM): -2.8 ± 0.8; IC50 (thrombin; HTS buffer, thrombin FRET substrate, mean ± SEM, read-out: Inhibition of thrombin: IC50): 400 ± 600 nM; inhibition of thrombin activity (words) (thrombin): I nhibited thrombin; inhibition of thrombin activity (words) (thrombin; listed as bromoenol lactone): inhibited thrombin activity |
| Cc1ccccc1N=Nc1ccc(NC(=O)c2ccnn2C)c(C)c1 [CH-223191] | Did not inhibit | – | – | – | – |
| CCCC[C@@H](C=O)NC(=O)[C@H](CC(C)C)NC(=O)[C@H](CC(C)C)NC(C)=O [Calpain Inhibitor I, (2S)-2-(acetylamino)-N-[(1S)-1-({[(1S)-1-formylpentyl]amino}carbonyl)-3-methylbutyl]-4-methylpentanamide] (Ac-Leu-Leu-[Nle]-aldehyde) | – | -2.0 ± 0.1 | inhibited nsp5 | 5170 ± 170 nM | inhibition of nsp5 in presence of reducing agent (nsp5 [1]; FRET-based assay): inhibited nsp5 in the absence of reducing agent as well as the presence of either reducing agent; IC50 (nsp5 [1]; FRET-based assay, Reducing agent: DTT, read-out: IC50): 2800 ± 200 nM; IC50 (nsp5 [1]; FRET-based assay, Reducing agent: GSH, read-out: IC50): 2300 ± 200 nM; IC50 (nsp5 [1]; FRET-based assay, Reducing agent: None, read-out: IC50): 2400 ± 100 nM; inhibition of nsp5 in absence of reducing agent (nsp5 [1]; FRET-based assay): inhibited nsp5 in the absence of reducing agent; toxic effects in mice (mice): without obvious toxic effects; EC50 (SARS-CoV-2; [4]): 280 ± 10 nM |
| O=c1c2ccccc2[se]n1-c1ccccc1 [Ebselen] | – | – | – | – | inhibition of nsp5 in presence of reducing agent (nsp5 [1]; FRET-based assay): only a slight reduction in nsp5 activity; inhibition of nsp5 in absence of reducing agent (nsp5 [1]; FRET-based assay): inhibited nsp5 only in the absence of a reducing agent |
| Br.CCCc1cc(-c2nc(-c3ccc(C)cc3)cs2)ccn1 [Fatostatin HBr] | showed some inhibition of nsp5 | -0.3 ± 0.08 | Did not inhibit; also recorded: did not show inhibition at any of the drug concentrations | 64900 nM | – |
| CN1CCN(c2c(F)cc3c(=O)c(C(=O)O)cn4c3c2OCN4C)CC1 [Marbofloxacin] | Did not inhibit | – | – | – | – |
| CC(C)[C@H](NC(=O)c1ccc2ccccc2n1)C(=O)N[C@@H](CC(=O)O)C(=O)COc1c(F)cccc1F [Q-VD-OPh] | – | – | did not inhibit nsp5 activity | – | toxic side effects in rhesus macaques (rhesus macaques): no toxic side effects |
| CCOc1ccc(Cc2cc([C@@H]3O[C@H](SC)[C@@H](O)[C@H](O)[C@H]3O)ccc2Cl)cc1 [Sotagliflozin (LX4211), Sotagliflozin] | Did not inhibit | – | – | – | – |
| COc1cc2ncc(-c3ccccc3)nc2cc1OC [Tyrphostin AG 1296] | did not inhibit in either validation step | – | did not inhibit in either validation step | – | – |
| COC(=O)CC(NC(=O)C(CC(C)C)NC(=O)C(NC(=O)C(C)NC(=O)C(CO)NC(=O)C(C)NC(=O)OCc1ccccc1)C(C)C)C(=O)CF (stereo not shown) [Z-ASAVLD-FMK] (Cbz-ASAVLD(OMe)-CH2F; configuration not given here) | – | – | – | 260 ± 20 nM | – |
| COC(=O)CC(NC(=O)C(CC(C)C)NC(=O)C(NC(=O)C(C)NC(=O)OCc1ccccc1)C(C)C)C(=O)CF (stereo not shown) [Z-AVLD-FMK] (Cbz-AVLD(OMe)-CH2F; configuration not given here) | – | – | – | – | IC50 (nsp5 [1]; FRET-based assay, custom FMK peptides, mean ± SEM, read-out: IC50): < 1 nM and 0.8 nM; EC50 (SARS-CoV-2; Severe acute respiratory syndrome coronavirus 2, Vero C1008): 66000 ± 7280 nM; increase in inhibitor potency (EC50) compared with Z-VAD-FMK (SARS-CoV-2; Vero E6 cells): 2 fold; EC50 (SARS-CoV-2): 66000 ± 7300 nM |
| COC(=O)CCC(NC(=O)C(CC(=O)OC)NC(=O)OCc1ccccc1)C(=O)NC(C(=O)NC(CC(=O)OC)C(=O)CF)C(C)C (stereo not shown) [Z-DEVD-FMK] | – | -0.7 ± 0.05 | inhibited nsp5 | – | IC50 (nsp5 [1]): 230 ± 30 nM |
| CCC(C)C(NC(=O)OCc1ccccc1)C(=O)NC(CCC(=O)OC)C(=O)NC(C(=O)NC(CC(=O)OC)C(=O)CF)C(C)O (stereo not shown) [Z-IETD-FMK] (Cbz-IE(OMe)TD(OMe)-CH2F; configuration not given here) | – | -1.4 ± 0.08 | inhibited nsp5 | 230 ± 10 nM | – |
| COC(=O)CC(NC(=O)C(CC(C)C)NC(=O)C(NC(=O)C(C)NC(=O)C(CO)NC(=O)OCc1ccccc1)C(C)C)C(=O)CF (stereo not shown) [Z-SAVLD-FMK] (Cbz-SAVLD(OMe)-CH2F; configuration not given here) | – | – | – | 20 ± 1 nM | – |
| COC(=O)CC(NC(=O)C(C)NC(=O)C(NC(=O)OCc1ccccc1)C(C)C)C(=O)CF (stereo not drawn) [Z-VAD-FMK, Z-VAD(OMe)-FMK] (Cbz-Val-Ala-Asp(OMe)-CH2F; configuration not given here) | – | -1.5 ± 0.07 | inhibited nsp5 | – | IC50 (nsp5 [1]): 160 ± 10 nM; EC50 (SARS-CoV-2; [4]): 138000 ± 19000 nM; concentrations at which inhibition of viral infection was displayed (SARS-CoV-2; Vero E6 cells): greater than 100 µM |
| PDK1/Akt/Flt Dual Pathway Inhibitor | showed some inhibition of nsp5 | -0.3 ± 0.02 | Did not inhibit | 26300 nM | inhibition of nsp5 in nsp9 gel-based cleavage assay (words) (nsp5 [2]; listed as PDK1/Akt/Flt Dual pathway): did not show inhibition at any of the drug concentrations |
| Q-DEVD-OPh | – | – | only displayed inhibition at the highest concentration of drug tested | – | – |
| Q-IETD-OPh | – | – | showed the best nsp5 inhibition | – | – |
